Experimental findings from PubChem BioAssay AID2060487 (Molecular Pharmacology Branch, DTP, NCI, 2025) are described below.

Values joined by “and” are separate entries in the source; they are usually repeats but may differ in a detail not shown here. Identical values can stand only once.

The test system of the test is 997537-175-T-J1-PDC complex spheroid viability. Description: Anticancer human tumor 997537-175-T-J1-PDC patient-derived colon adenocarcinoma cell line growth inhibition [GQUAD]. As to conditions: for viability, T/C: stronger effect = lower value. From the text: DNA G-quadruplex Stabilizer Agents in Combinations in Complex Spheroids
A high-throughput screen of multi-cell type tumor spheroids was designed to identify active combinations of DNA G-quadruplex stabilizer agents and targeted small molecules. Complex spheroids include a stromal component modeled by human endothelial cells (HUVEC) and fibroblasts modeled by human mesenchymal stem cells (MSCs). The concentration ranges selected for each drug and investigational agent were based upon clinically achievable concentrations if the clinical Cmax of the agent was known.
Compounds. The drugs and investigational agents: pidnarulex (CX-5461; NSC782164), APTO-253 (NSC789042), BRACO-19 (NSC847499), peposertib (NSC802822), ceralasertib (NSC780249), elimusertib (NSC800525), camonsertib (NSC841442), AZD-1390 (NSC803789), olaparib (NSC753686), talazoparib (NSC767125), ART-558 (NSC835418), sotorasib (NSC818433), MRTX-1133 (NSC836407), SN-38 (NSC673596), topotecan (NSC609699), etoposide (NSC141540), doxorubicin (NSC123127), gemcitabine (NSC613327), 5-fluorouracil (NSC19893), paclitaxel (NSC125973), vemurafenib (NSC761431), panobinostat (NSC761190), R-306465 (JNJ-16241199; NSC773264), adavosertib (NSC754352), TP-3654 (NSC805149), carboplatin (NSC241240), KSQ-4279 (NSC840948), and staurosporine (NSC755774) were obtained from the National Cancer Institute (NCI) Developmental Therapeutics Program Chemical Repository (34). The FDA-approved anticancer drug set is available from the NCI Developmental Therapeutics Program. […] The stock solutions were prepared in dimethyl sulfoxide (DMSO, Sigma-Aldrich, St. Louis, MO, cat. D2650) at 800-fold the tested concentration and stored at -70 degrees C prior to their use. All drugs and investigational agents were tested over a range starting from a high concentration at or near the clinical Cmax and decreasing in half-log increments. If the clinical Cmax for an agent had not been determined, the highest concentration tested was 10 microM.
2.3 Cell Culture. All cells were maintained in an incubator at 37 degrees C and 5% CO2 with 95% humidity. The PDC lines were cultured according to standard operating procedures established by the NCI PDMR. All PDCs were thawed and cultured in Matrigel-coated flasks prepared with a working solution of 1X Ham's F-12 nutrient mix, without supplementation (Invitrogen, cat. 11765054), 100 U/mL penicillin-streptomycin (Invitrogen, cat. 15140122), and 2.5% Matrigel (Corning Inc., cat. 354248) for the first three passages. The 857933-349-R-J2-PDC line was cultured in 6C/Colon 1B media, which includes advanced DMEM/F-12 (Thermo Fisher Scientific, cat. 12634028), 10 mM HEPES (Thermo Fisher Scientific, cat. 15630080), 1X GlutaMAX supplement (Thermo Fisher Scientific, cat. 35050061), 0.1 mg/mL primocin (InvivoGen, cat. ant-pm-2), 10% defined fetal bovine serum, heat inactivated (HyClone Laboratories Inc., cat. SH30070.03HI), 50% L-WRN conditioned media (ATCC, cat. CRL-3276), 1.25 mM N-Acetyl-L-cysteine (Sigma-Aldrich, cat. A9165), 10 mM nicotinamide (Sigma-Aldrich, cat. N0636), 1X B-27 supplement (Thermo Fisher Scientific, cat. 17504044), 1X N-2 supplement (Thermo Fisher Scientific, cat. 17502048), 10 microM Y-27632 dihydrochloride (Tocris Bioscience, cat. 1254), and 50 ng/mL human EGF recombinant protein (Thermo Fisher Scientific, cat. PHG0311). The 485176-168-R4-J1-PDC line was cultured in Panc media, which includes all 6C/Colon 1B media components plus 100 ng/mL human FGF-10 (Thermo Fisher Scientific, cat. 100-26), 500 nM SB-431542 (Selleckchem, cat. S1067), and gastrin (Tocris, cat. 3006).
[…]
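Also: spheroids exposed to the agents for 7 days.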

Take `CCc1c2c(nc3ccc(O)cc13)-c1cc3c(c(=O)n1C2)COC(=O)[C@]3(O)CC` + Cc1cnc(CNC(=O)c2c(=O)c3ccc(N4CCCN(C)CC4)nc3n3c2sc2ccccc23)cn1: the half-maximal inhibitory concentration (IC50) runs as follows: (curve of first compound, second compound 0.0316 µM) 8.07 nM; (curve of first compound, second compound 0.1 µM) 11.8 nM; (curve of first compound, second compound 0.316 µM) 11.4 nM; (curve of first compound, second compound 1 µM) 7.52 nM; (curve of first compound, second compound 3.16 µM) 13.3 nM; (curve of first compound, second compound 10 µM) 12.7 nM. For the same compound, the viability, T/C by setting is: (second compound 0.0316 µM, first compound 0.000999 µM) 101%; (second compound 0.0316 µM, first compound 0.00316 µM) 70.3%; (second compound 0.0316 µM, first compound 0.00999 µM) 50.2%; (second compound 0.0316 µM, first compound 0.0316 µM) 17.3%; (second compound 0.0316 µM, first compound 0.0999 µM) 6.2%; (second compound 0.0316 µM, first compound 0.316 µM) 2.76%. Moreover, the viability, T/C is, setting by setting: (second compound 0.1 µM, first compound 0.000999 µM) 95.2%; (second compound 0.1 µM, first compound 0.00316 µM) 85.8%; (second compound 0.1 µM, first compound 0.00999 µM) 57%; (second compound 0.1 µM, first compound 0.0316 µM) 13.7%; (second compound 0.1 µM, first compound 0.0999 µM) 8.95%; (second compound 0.1 µM, first compound 0.316 µM) 3.1%. Also, the viability, T/C (second compound 0.316 µM, first compound 0.000999 µM) was 101%; the viability, T/C (second compound 0.316 µM, first compound 0.00316 µM) was 73.4%; the viability, T/C (second compound 0.316 µM, first compound 0.00999 µM) was 63.1%; the viability, T/C (second compound 0.316 µM, first compound 0.0316 µM) is 15.6%; the viability, T/C (second compound 0.316 µM, first compound 0.0999 µM) was 10%; the viability, T/C (second compound 0.316 µM, first compound 0.316 µM) is 3.09%. Also, the viability, T/C (second compound 1 µM, first compound 0.000999 µM) was 109%; the viability, T/C (second compound 1 µM, first compound 0.00316 µM) is 69.2%; the viability, T/C (second compound 1 µM, first compound 0.00999 µM) was 42.1%; the viability, T/C (second compound 1 µM, first compound 0.0316 µM) is 28.1%; the viability, T/C (second compound 1 µM, first compound 0.0999 µM) was 9.78%; the viability, T/C (second compound 1 µM, first compound 0.316 µM) is 2.05%. The viability, T/C by setting is: (second compound 3.16 µM, first compound 0.000999 µM) 91.8%; (second compound 3.16 µM, first compound 0.00316 µM) 80.2%; (second compound 3.16 µM, first compound 0.00999 µM) 54.9%; (second compound 3.16 µM, first compound 0.0316 µM) 32.5%; (second compound 3.16 µM, first compound 0.0999 µM) 8.3%; (second compound 3.16 µM, first compound 0.316 µM) 2.04%. The viability, T/C (second compound 10 µM, first compound 0.000999 µM) was 81.3%; the viability, T/C (second compound 10 µM, first compound 0.00316 µM) was 71.1%; the viability, T/C (second compound 10 µM, first compound 0.00999 µM) was 59.7%; the viability, T/C (second compound 10 µM, first compound 0.0316 µM) was 19.4%; the viability, T/C (second compound 10 µM, first compound 0.0999 µM) was 7.8%; the viability, T/C (second compound 10 µM, first compound 0.316 µM) is 1.03%.
`COc1ncnc(C2CC2)c1-c1ncc2cnn(Cc3ccc(-c4nc(C(F)(F)F)cn4C(C)C)cc3)c2n1`: the viability, T/C is, setting by setting: (compound 0.0316 µM) 108% and 102% and 88.2%; (compound 0.1 µM) 74.8% and 112% and 95%; (compound 0.316 µM) 108% and 90.8% and 83.2%; (compound 1 µM) 75.4% and 97.9% and 84.9%; (compound 3.16 µM) 82.6% and 103% and 75.4%; (compound 10 µM) 80.2% and 58% and 77.7%. Besides, the half-inhibitory concentration (IC50) (curve of compound) was above 10000 nM.
For `COc1cccc2c1C(=O)c1c(O)c3c(c(O)c1C2=O)CC(O)(C(=O)CO)CC3OC1CC(N)C(O)C(C)O1` (configuration not stated), the viability, T/C is, setting by setting: (compound 0.0316 µM) 98.9% and 107% and 104%; (compound 0.1 µM) 95.5% and 101% and 75.2%; (compound 0.316 µM) 92.8% and 91.6% and 89.9%; (compound 1 µM) 99.9% and 88.3% and 107%; (compound 3.16 µM) 76.1% and 72.2% and 74.3%; (compound 10 µM) 51.4% and 40.7% and 23.7%. For the same compound, the IC50 (curve of compound) was > 10000 nM and 7160 nM and 5500 nM.
For `Cc1cccc(N(C)C(=O)C2C(O)CCN2c2nc(C)cc(C(F)(F)F)c2C#N)c1` (configuration not stated), the viability, T/C runs as follows: (compound 0.0316 µM) 107% and 89.4% and 99.3%; (compound 0.1 µM) 97.1% and 94.8% and 91.9%; (compound 0.316 µM) 97% and 109% and 98%; (compound 1 µM) 88.5% and 83.3% and 100%; (compound 3.16 µM) 60.2% and 82.8% and 85.9%; (compound 10 µM) 89.4% and 74.4% and 90.4%. For the same compound, the IC50 (curve of compound) is above 10000 nM.
Consider `CC1COCCN1c1cc(C2(S(C)(=N)=O)CC2)nc(-c2ccnc3[nH]ccc23)n1` (configuration not stated), for which the viability, T/C is, setting by setting: (compound 0.0316 µM) 98.9% and 93.7% and 101%; (compound 0.1 µM) 81.9% and 86.5% and 95.8%; (compound 0.316 µM) 83.6% and 94.9% and 77%; (compound 1 µM) 83.5% and 68.5% and 90.1%; (compound 3.16 µM) 56.5% and 65.7% and 59.5%; (compound 10 µM) 46.4% and 44.1% and 36.8%. The IC50 (curve of compound) is 7160 nM and 7090 nM and 5600 nM.
On to `CC(=O)O[C@H]1C(=O)[C@@]2(C)[C@H]([C@H](OC(=O)c3ccccc3)[C@]3(O)C[C@H](OC(=O)[C@H](O)[C@@H](NC(=O)c4ccccc4)c4ccccc4)C(C)=C1C3(C)C)[C@]1(OC(C)=O)CO[C@@H]1C[C@@H]2O`, for which the viability, T/C is, setting by setting: (compound 0.0316 µM) 104% and 77.3% and 50.1%; (compound 0.1 µM) 92.5% and 40.4% and 45.4%; (compound 0.316 µM) 91.8% and 22.7% and 36.3%; (compound 1 µM) 74.7% and 34.4% and 39.1%; (compound 3.16 µM) 53.2% and 23.9% and 28.3%; (compound 10 µM) 0.36% and 20.5% and 22%.
For `Nc1ccn(C2OC(CO)C(O)C2(F)F)c(=O)n1` (configuration not stated), the viability, T/C reads like this: (compound 0.0316 µM) 103% (2×) and 99.3%; (compound 0.1 µM) 92.3% and 96% and 108%; (compound 0.316 µM) 93.5% and 99.5% and 101%; (compound 1 µM) 91.9% and 64.2% and 92.5%; (compound 3.16 µM) 88.4% and 55.3% and 62%; (compound 10 µM) 85.4% and 64.9% and 84.9%. Also, the IC50 (curve of compound) was above 10000 nM.
With `COc1ccc([C@@H](O)c2cc(-c3ncnc4cc(N5CCOCC5)ccc34)c(F)cc2Cl)nn1`, the viability, T/C runs as follows: (compound 0.0316 µM) 92.9% and 91.3% and 86%; (compound 0.1 µM) 90.2% and 89.7% and 104%; (compound 0.316 µM) 94.4% and 88.5% and 89.3%; (compound 1 µM) 101% and 83.3% and 91.5%; (compound 3.16 µM) 82.6% and 73.8% and 58.5%; (compound 10 µM) 65.1% and 78.9% and 67.7%. For the same compound, the IC50 (curve of compound) is above 10000 nM.
As to `CCc1c2c(nc3ccc(O)cc13)-c1cc3c(c(=O)n1C2)COC(=O)[C@]3(O)CC`, the viability, T/C is, setting by setting: (compound 0.000999 µM) 83.3% and 102% and 95.3%; (compound 0.00316 µM) 63.9% and 92% and 82.8%; (compound 0.00999 µM) 52.7% and 68.5% and 49%; (compound 0.0316 µM) 34.5% and 31.5% and 19.4%; (compound 0.0999 µM) 6.34% and 5.01% and 4.92%; (compound 0.316 µM) 2.98% and 3.42% and 6.93%. The IC50 (curve of compound) is 10.5 nM and 17.4 nM and 9.78 nM.

Broadly, the IC50 is the concentration needed to halve the response being measured. For orientation: viability, T/C means the result in the treated group divided by that in the control group, in per cent.
